Values of other authors as cited in patent US9555015B2, “Antimicrobial compositions and methods for their use” (Dermcare-Vet Pty Ltd, priority 2004, dated 2017).

What was measured:
[1] = especially in concentrations as high as 2%, particularly when the tympanic membrane has been ruptured
[2] = 0.2% chlorhexidine, external ear, ruptured tympanic membranes
[3] = 0.02% chlorhexidine compositions, bladder instillation

## [H]/N=C(\N/C(=N/[H])NCCCCCCNC(=N)NC(=N)Nc1ccc(Cl)cc1)Nc1ccc(Cl)cc1 [chlorhexidine]
[1]
  ototoxicity: ototoxic
[2]
  ototoxic effects: no ototoxic effects
[3]
  bladder adverse effect: chemical cystitis resulting in haematuria
